Experimental data published in US7696174B2, “Short bio-active peptides for cellular and immunological modulation” (Helix Biomedix, Inc., priority 2007, dated 2010).
“Also recorded” adds a separate entry of the source. Read-outs that look alike come from different tables or passages of the source.

Experiments:
Assay type in all cases: cell-based
[1] = tested on: IL6 expression in epithelial cells; experiment: Repression of IL6 expression in resting epithelial cells; conditions: for % Change in IL6 expression / Change in IL6 versus PBS control: 20 μg/mL peptide
From the text: The protocol for this assay is standard and described by Murakami et al. (2004, J. Immunol. 172:[…]), the article of which is incorporated herein by reference in its entirety.

[2] = tested on: PAM 212 murine epidermal keratinocyte; experiment: Cell proliferation assay, PAM 212 murine epidermal keratinocytes; conditions: for cell proliferation as a percent of control cell proliferation: control = cells treated with PBS only; for cell proliferation activity (in words): epidermal keratinocytes
Experimental: To examine this question, an overlapping set of peptide fragments of HB-107 was generated using standard solid phase peptide chemistry. These peptides were then assayed for cell proliferation activity at concentrations of 0.22, 2.15, 21.5 and 46.4 μg/mL.
The cell proliferation assays proceeded from the following experimental protocol:
Cell Proliferation Assay Using a Mouse Keratinocyte Cell Line.
OBJECTIVE: To determine the anti-proliferative or cytotoxic potential of a test article when applied to epidermal keratinocytes in culture.
TEST SYSTEM: Either the murine keratinocyte cell line PAM212 or primary Normal Human Epidermal Keratinocytes (NHEK, from Clonetics) are preferred models, although other cells may be used.
Keratinocytes are examined microscopically daily. As the culture becomes 50-75% confluent, the media in the plate is aspirated and 0.25% trypsin/EDTA is added (0.05% trypsin for human cells). When the cells become rounded, the trypsin is neutralized by addition of an equal volume of DMEM or KBM supplemented with approximately 10% bovine serum or by using trypsin neutralizing solution (TNS, from Clonetics). Cells are then centrifuged and the pellet is resuspended in 1 ml of DMEM-1 or KBM. A hemacytometer is used to count the cell suspension and the total number of cells/mL is adjusted to 1.5-2.5×10^4 cells/mL with DMEM-1 or KBM. Cells are then plated in 96-well plates at a concentration of 3.0-5.0×10^3 cells/well by adding 200 μL of the cell suspension to each well. Typically, the central 60 wells are used and the outer wells are filled with DMEM or PBS to minimize evaporation effects.
A stock solution of the test article is prepared using DMEM-1 or KBM, and all other dilutions are henceforth prepared from this solution. Typically, each dilution is filtered through an 0.2-μm filter before application to the cell culture. A 1.0% (w/v or v/v) solution or suspension is prepared, and 10-fold or 3-fold serial dilutions are made in culture medium.
The cells are examined 18-24 hours after plating to ensure cell attachment and division, and then 100 μL of the media is aspirated, leaving behind 100 μL in each well. Then 100 μL of a 2× concentration of each test article dilution is added to the replicate wells. For the negative control, 100 μL of the vehicle media (DMEM-1 or KBM) is added to the control wells. The microplate is then incubated at 37 degrees C. and 5.0% CO2 for 48-72 hours after dosing, and cells are allowed to proliferate undisturbed. Following this 48-72 hour exposure, all media is aspirated and proliferation is assessed by one of the below methods.
Option A: neutral red uptake. After exposure and aspiration of media, 200 μL of neutral red media is immediately added to each well. The microplate is returned to the incubator for an additional three hours. Following this dye uptake period, the microplate is removed from the incubator and gently inverted, and the neutral red media is decanted into a collection pan. The cells are then fixed with fixing solution for approximately one minute. The fixing solution is decanted off, and the microplate is washed gently three times with washing solution. The washing solution is decanted, and 200 μL of lysing solution is added. After at least 15 minutes, the contents of each well are re-pipetted to ensure even color distribution in each well, and an aliquot is read on the spectrophotometer as detailed below.
Option B: MTT conversion assay. After exposure and aspiration of media, 200 μL of MTT assay media is immediately added to each well. […] The microplate is returned to the incubator for an additional three hours. Following this dye uptake period, the microplate is removed from the incubator and gently inverted, and the MTT media is decanted into a collection pan. The cells are then washed gently three times with washing solution. The washing solution is decanted, and 200 μL of lysing solution is added. […]

[3] = tested on: human epidermal keratinocyte; experiment: Keratinocyte cell migration assay (tissue culture scratch test); conditions: for cell migration activity (in words): scratch test
From the text: Cell proliferation alone is not sufficient to aid in wound healing. Upon sustaining an injury, cells bordering the wound proliferate; the migration of such newly formed cells to close the injury (or chronic lesion of older, dysfunctional tissue) is of equal importance. To address this issue, HB-107 and peptide fragments thereof were examined using a keratinocyte cell migration assay based on a simple tissue culture scratch test. […] The protocol for this assay is standard and has been described by Shanley et al. (2004, Invest. Ophthalmol. Vis. Sci. 45:1088-1094), the article of which is herein incorporated by reference in its entirety.

[4] = 24 hr after addition of 20 μg/mL peptide
[5] = 48 hr after addition of 20 μg/mL peptide

Row | Substance | cell proliferation as a percent of control cell proliferation ([2]; 0.22 μg/mL peptide) [%] | cell proliferation as a percent of control cell proliferation ([2]; 2.15 μg/mL peptide) [%] | cell proliferation as a percent of control cell proliferation ([2]; 21.5 μg/mL peptide) [%] | cell proliferation as a percent of control cell proliferation ([2]; 46.4 μg/mL peptide) [%] | cell proliferation activity (in words) [2] | other results
1 | KEKVFLKIE (listed as Hyalophora cecropia) [HB-1076, fragment of HB-107] |  |  |  |  |  | IL6 reduction / anti-inflammatory activity in resting cells (in words) [1]: decrease the level of IL6 expression to the same degree as the HB-107 parent peptide; amount of IL6, Average [1, 4]: 266.7 pg/mL; amount of IL6, Well 1 [1, 4]: 278.32 pg/mL; amount of IL6, Well 2 [1, 4]: 255.08 pg/mL; % Change in IL6 expression ([1]; 24 hr): −17.60%; Change in IL6 versus PBS control ([1]; 24 hr): −56.8; amount of IL6, Average [1, 5]: 727.59 pg/mL; amount of IL6, Well 1 [1, 5]: 726.73 pg/mL; amount of IL6, Well 2 [1, 5]: 728.45 pg/mL; % Change in IL6 expression ([1]; 48 hr): −25.40%; Change in IL6 versus PBS control ([1]; 48 hr): −247.445; IL6 reduction / anti-inflammatory activity in resting cells (in words) ([1]; listed as SEQ ID NO:8): having anti-inflammatory activity
2 | MPKEKVFLKIEKMG (listed as Hyalophora cecropia) [HB-912, fragment of HB-107] | 100 | 84 | 125 | 137 | can induce cell proliferation | 
3 | LKIEKMGRNIRN (listed as Hyalophora cecropia) [HB-1056, fragment of HB-107] | 48 | 39 | 64 | 97 |  | 
4 | GRNIRN (listed as Hyalophora cecropia) [HB-1062, fragment of HB-107] |  |  |  |  |  | percent closure of the scratch compared to initial width ([3]; 6 hr exposure to peptide): 0%; percent closure of the scratch compared to initial width ([3]; 10 hr exposure to peptide): 24%; cell migration activity (in words) [3]: no migratory activity
5 | VFLKIEKMG (listed as Hyalophora cecropia) [HB-1071, fragment of HB-107] | 106 | 127 | 188 | 155 |  | cell proliferation activity (in words) ([2]; listed as 5): strongest proliferative activity; cell proliferation activity (in words) ([2]; listed as SEQ ID NO:5): can induce cell proliferation
6 | KMGRNIRN (listed as Hyalophora cecropia) [HB-1060, fragment of HB-107] | 57 | 52 | 90 | 83 |  | 
7 | KIEKMGRNIRN (listed as Hyalophora cecropia) [HB-1057, fragment of HB-107] | 121 | 118 | 171 | 167 |  | cell proliferation activity (in words) ([2]; listed as 9): strongest proliferative activity; cell proliferation activity (in words) ([2]; listed as SEQ ID NO:9): can induce cell proliferation
8 | VFLKIEK (listed as Hyalophora cecropia) [HB-1074, fragment of HB-107] | 97 | 93 | 120 | 149 | can induce cell proliferation | 
9 | MGRNIRN (listed as Hyalophora cecropia) [HB-1061, fragment of HB-107] | 122 | 156 | 163 | 241 | significant increases in cell proliferation compared to induction by HB-107; also recorded: significant increase in the proliferation of epidermal keratinocytes at low concentrations | percent closure of the scratch compared to initial width ([3]; 6 hr exposure to peptide): 44%; percent closure of the scratch compared to initial width ([3]; 10 hr exposure to peptide): 67%; cell migration activity (in words) [3]: just as capable as HB-107 in inducing cell migration; also recorded: capable of increasing the migration of cells in a manner similar to that of the parent HB-107 peptide; cell migration activity (in words) ([3]; listed as SEQ ID NO:3): can induce cell proliferation and migration; cell proliferation activity (in words) ([2]; listed as 3): strongest proliferative activity; cell proliferation activity (in words) ([2]; listed as SEQ ID NO:3): can induce cell proliferation
10 | EKMGRNIRN (listed as Hyalophora cecropia) [HB-1059, fragment of HB-107] | 95 | 128 | 162 | 186 |  | cell proliferation activity (in words) ([2]; listed as SEQ ID NO:2): strongest proliferative activity; also recorded: can induce cell proliferation
11 | KIEKMG (listed as Hyalophora cecropia) [HB-1072, fragment of HB-107] | 98 | 107 | 185 | 237 | significant increases in cell proliferation compared to induction by HB-107; also recorded: significant increase in the proliferation of epidermal keratinocytes at low concentrations | percent closure of the scratch compared to initial width ([3]; 6 hr exposure to peptide): 55%; percent closure of the scratch compared to initial width ([3]; 10 hr exposure to peptide): 77%; cell migration activity (in words) [3]: just as capable as HB-107 in inducing cell migration; also recorded: capable of increasing the migration of cells in a manner similar to that of the parent HB-107 peptide; cell migration activity (in words) ([3]; listed as SEQ ID NO:6): can induce cell proliferation and migration; cell proliferation activity (in words) ([2]; listed as 6): strongest proliferative activity; cell proliferation activity (in words) ([2]; listed as SEQ ID NO:6): can induce cell proliferation
